# In patent US20180036302A1, “TREATMENT OF MULTIPLE SCLEROSIS WITH COMBINATION OF LAQUINIMOD AND A STATIN” (Teva Pharmaceutical Industries Ltd., priority 2014, published 2018):
# Columns and labels:
# [1] = test system: MOG induced chronic Experimental Autoimmune Encephalomyelitis (EAE) model; experiment: MOG induced chronic EAE in C57Bl/6 mice; format: in vivo; settings: for % inhibition 1 (incidence) / % inhibition 2 (MMS) / % inhibition 3 (GMS): vs vehicle
# [2] = test system: Multiple Sclerosis; settings: two phase III trials; cited from earlier work
# [3] = in vivo; settings: male, C57BL/6, mouse, po, 5 mg/kg
# Method: For all PO administration groups: 1% MC in water (all PO formulations were made just prior to use).
# Fasted overnight and fed 4 hr post dose, free access to water
# • 1. For plasma samples: An aliquot of 30 μL plasma sample was added with 150 μL ACN which contains IS (Dexamethasane 40 ng/mL, 5 ng/mL) for protein precipitation. The mixture was vortexed for 2 rain and centrifuged at 12000 rpm for 5 min. The 2 μL supernatant was injected into LC-MS/MS. • 2. For diluted plasma samples: An aliquot of 10 μL plasma sample was added with 90 μL blank plasma to obtain the diluted plasma samples, and the sample dilution factor is 10. An aliquot of 10 μL 10-folder-diluted plasma sample was added with 40 μL blank plasma to obtain the diluted plasma samples, and the sample dilution factor is 50. The exaction procedure for diluted samples was same as those for non-diluted samples.
# The animals were restrained manually at the designated time points. Approx. 150 μL of blood samples were taken from the animals into K2EDTA tubes via retro-orbital puncture or cardiac puncture for terminal bleeding under anesthesia with Isoflurane. Blood sample was put on ice and centrifuged at 2000 g for 5 min (4° C.) to obtain plasma sample within 15 minutes. Plasma samples were snap frozen by placing into dry-ice.
# The plasma samples were stored at approximately −70° C. until analysis. The backup samples are discarded after two months unless specified. The unused dosing solutions are discarded within 1 week after completion of the study.
# [4] = in vivo; cited from earlier work
# [5] = Atorvastatin 10 mg/kg BID gavage, Day 1-30
# [6] = Atorvastatin 50 mg/kg BID gavage, Day 1-30
# [7] = Laquinimod 5 mg/kg/day gavage, Day 1-30
# [8] = Laquinimod 25 mg/kg/day gavage, Day 1-30
structure (smiles),measurement,setting,value
"CC(C)c1c(C(=O)Nc2ccccc2)c(-c2ccccc2)c(-c2ccc(F)cc2)n1CC[C@@H](O)C[C@@H](O)CC(=O)O [Atorvastatin, atorvastatin]",Duration,[1]; [5],18.1 ± 2.1 days
same,GMS value,[1]; [5],2.5 ± 0.6
same,Incidence,[1]; [5],15/15
same,MMS value,[1]; [5],3.6 ± 0.5
same,Onset,[1]; [5],12.4 ± 1.2 days
same,% inhibition 1 (incidence),[1]; [5],0%
same,% inhibition 2 (MMS),[1]; [5],2.7%
same,% inhibition 3 (GMS),[1]; [5],7.4%
same,Duration,[1]; [6],17.2 ± 4.9 days
same,GMS value,[1]; [6],2.3 ± 0.7
same,Incidence,[1]; [6],14/15
same,MMS value,[1]; [6],3.3 ± 1.0
same,Onset,[1]; [6],13.8 ± 4.9 days
same,% inhibition 1 (incidence),[1]; [6],6.7%
same,% inhibition 2 (MMS),[1]; [6],10.8%
same,% inhibition 3 (GMS),[1]; [6],14.8%
same,Mortality,"[1]; mouse, in vivo",0/15
CCN(C(=O)c1c(O)c2c(Cl)cccc2n(C)c1=O)c1ccccc1 [Laquinimod],safety and tolerability profile,[2],favorable safety and tolerability profile
same,AUCINF,[3],71465 ng·h/mL
same,AUClast,[3],71302 ng·h/mL
same,AUC(0-inf),[3]; AUCINF,86900 ng·h/mL
same,AUC(0-t),[3]; AUClast,86700 ng·h/mL
same,Cmax,[3]; Cmax,31100 ng/mL
same,half-life,[3]; Terminal t1/2,3.01 h
same,Tmax,[3]; Tmax,0.5 h
same,Duration,[1]; [7],13.5 ± 7.9 days
same,GMS value,[1]; [7],1.4 ± 1.0
same,Incidence,[1]; [7],12/15
same,MMS value,[1]; [7],2.3 ± 1.3
same,Mortality,[1]; [7],0/15
same,Onset,[1]; [7],16.3 ± 7.7 days
same,% inhibition 1 (incidence),[1]; [7],20%
same,% inhibition 2 (MMS),[1]; [7],37.8%
same,% inhibition 3 (GMS),[1]; [7],48.1%
same,Duration,[1]; [8],4.1 ± 6.0 days
same,GMS value,[1]; [8],0.3 ± 0.6
same,Incidence,[1]; [8],5/15
same,MMS value,[1]; [8],0.7 ± 1.0
same,Mortality,[1]; [8],0/15
same,Onset,[1]; [8],25.63 ± 7.5 days
same,% inhibition 1 (incidence),[1]; [8],66.7%
same,% inhibition 2 (MMS),[1]; [8],81.1%
same,% inhibition 3 (GMS),[1]; [8],91.9%
same,oral bioavailability,[4],high oral bioavailability
